Data: ChEMBL document CHEMBL2385071, “Synthesis and biological investigation of coumarin piperazine (piperidine) derivatives as potential multireceptor atypical antipsychotics” (J Med Chem, 2013)

Key:
Mus musculus [1] = organism: Mus musculus; assay: animal or person; conditions: po
Rattus norvegicus [2] = assay: Antipsychotic activity in po dosed rat assessed as reduction in conditioned avoidance response after 60 mins; format: functional; conditions: 1 h
Mus musculus [3] = organism: Mus musculus; assay: animal or person; conditions: po; remark: listed apart in the source
Description: Antipsychotic activity in po dosed mouse assessed as reduction in apomorphine-induced climbing behavior administered for 30 mins prior to apomorphine-challenge measured at 10 to 30 mins post-dose

Rattus norvegicus [4] = assay: Toxicity in rat assessed as QT interval prolongation at 30 mg/kg, po by electrophysiology assay; format: organism-based; set-up: dose 30 mg/kg, route oral; conditions: in vivo
Mus musculus [5] = assay: Toxicity in mouse assessed as weight gain at 0.06 to […], po for 28 days; format: organism-based; set-up: dose 0.06-0.16 mg/kg, route oral; conditions: in vivo, 672 h

## Cc1nc2n(c(=O)c1CCN1CCC(c3noc4cc(F)ccc34)CC1)CCCC2 [RISPERIDONE]
Mus musculus [1]
  ED50: 0.01 mg/kg
Rattus norvegicus [2]
  ED50: 0.48 mg/kg
Mus musculus [3]
  ED50: 0.02 mg/kg
Rattus norvegicus [4]
  Activity: Toxic
Mus musculus [5]
  Activity: Toxic
